This is an account of results in ChEMBL document CHEMBL1136972, “Repenins A-D, four new antioxidative coumarinolignoids from Duranta repens Linn” (Bioorg Med Chem Lett, 2009).

Broadly, the IC50 is the concentration that gives 50% inhibition.

The experiment concerns Radical scavenging activity. The experiment is described as follows: Antioxidant activity assessed as DPPH free radical scavenging activity. The format is functional. (DPPH is a stable violet radical that fades when it is reduced.)
On to `COc1ccc(O)c(C(C)(C)C)c1.COc1ccc(O)cc1C(C)(C)C` [BUTYLATED HYDROXYANISOLE], for which the IC50 is 43 µM.

For `COc1cc([C@H]2Oc3c(OC)cc4ccc(=O)oc4c3O[C@@H]2COC(=O)c2ccc(O)c(O)c2)cc(OC)c1O` [REPENIN D], the IC50 worked out at 510 µM.

In the case of `COc1cc([C@H]2Oc3c(OC)cc4ccc(=O)oc4c3O[C@@H]2COC(=O)/C=C/c2ccc(O)cc2)ccc1O` [REPENIN A], the IC50 was 530 µM.

As to `COc1cc(/C=C/C(=O)OC[C@H]2Oc3c(c(OC)cc4ccc(=O)oc34)O[C@@H]2c2ccc(O)c(OC)c2)ccc1O` [REPENIN B], the IC50 was 420 µM.

Consider `COc1cc([C@H]2Oc3c(OC)cc4ccc(=O)oc4c3O[C@@H]2CO)ccc1O` [CLEOMISCOSIN A], for which the IC50 was found to be 612 µM.

`COc1cc([C@H]2Oc3c(OC)cc4ccc(=O)oc4c3O[C@@H]2COC(C)=O)ccc1O` [DURANTIN A]: the IC50 is 625 µM.

With `COc1cc([C@H]2Oc3c(OC)cc4ccc(=O)oc4c3O[C@@H]2COC(=O)/C=C/c2ccc(O)c(O)c2)ccc1O` [REPENIN C], the IC50 is 450 µM.
